Among the test systems are COLO 205 colon; MDA-MB-231 breast; ACHN renal; HS 578T breast; CAKI-1 renal; SK-MEL-28 melanoma; HL-60(TB) leukemia; 786-0 renal; OVCAR-3 ovarian; SK-OV-3 ovarian.
What all share (test): growth of human tumour cells (NCI), 48 h

Several values for one entry are separate records, joined by “and”; a condition that tells them apart may be missing. Equal entries are not always repeated.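 Each compound was tested at five concentrations against cells in 96-well plates for 48 hours. GI50: concentration for 50% inhibition of growth. TGI marks complete inhibition of growth.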

For the molecule `Nc1c(C(=O)Nc2cccc3ccccc23)sc2nc3c(cc12)C(=O)CCC3`, the GI50 with COLO 205 colon was 0.15 µM; in the experiment on MDA-MB-231 breast, 0.379 µM; in the experiment on ACHN renal, 0.341 µM; with HS 578T breast, 0.226 µM; in the experiment with CAKI-1 renal it was 0.359 µM; with SK-MEL-28 melanoma, 0.341 µM. Further, the GI50 is 0.246 µM in the experiment with HL-60(TB) leukemia, 0.388 µM with 786-0 renal, 0.229 µM with OVCAR-3 ovarian and 0.173 µM with SK-OV-3 ovarian. In addition, the TGI with COLO 205 colon was 0.418 µM; with MDA-MB-231 breast, 6.92 µM; in the experiment with ACHN renal, above 58.2 µM; in the experiment with HS 578T breast, above 100 µM; in the experiment with CAKI-1 renal, above 100 µM; with SK-MEL-28 melanoma, 53.4 µM. Further, the TGI in the experiment with HL-60(TB) leukemia stood at 0.804 µM; in the experiment on 786-0 renal it was 35.8 µM; with OVCAR-3 ovarian it was 0.696 µM; in the experiment with SK-OV-3 ovarian it was 7.65 µM.

On to `COc1cc(/C=N/NC(=O)c2ccccc2Nc2cccc(C(F)(F)F)c2)cc(OC)c1OC`, for which the GI50 in the experiment with COLO 205 colon was 2.72 µM; in the experiment with MDA-MB-231 breast it was 6.33 µM; in the experiment on ACHN renal it was 3.3 µM; in the experiment on HS 578T breast, 0.971 µM; in the experiment with CAKI-1 renal, 1.4 µM; in the experiment with SK-MEL-28 melanoma, 2.28 µM. In addition, the GI50 was 2.01 µM in the experiment with HL-60(TB) leukemia, 3.22 µM in the experiment with 786-0 renal, 0.797 µM with OVCAR-3 ovarian and 2.92 µM in the experiment on SK-OV-3 ovarian. Besides, the TGI amounted to 9.87 µM in the experiment on COLO 205 colon; 20.5 µM with MDA-MB-231 breast; 13.3 µM with ACHN renal; 6.6 µM in the experiment with HS 578T breast; 4.71 µM in the experiment on CAKI-1 renal; 8.16 µM in the experiment with SK-MEL-28 melanoma. The TGI is 4.73 µM in the experiment on HL-60(TB) leukemia, 11.6 µM with 786-0 renal, 2.33 µM in the experiment on OVCAR-3 ovarian and 8.44 µM with SK-OV-3 ovarian.

With `Cc1c(Cl)cccc1NC(=O)c1sc2nc3c(cc2c1N)CCCC3`, the GI50 was 0.719 µM in the experiment on COLO 205 colon; above 100 µM in the experiment on MDA-MB-231 breast; 0.785 µM in the experiment on ACHN renal; 1.05 µM in the experiment on HS 578T breast; 1.01 µM with CAKI-1 renal; 0.305 µM in the experiment with HL-60(TB) leukemia. Also, the GI50 in the experiment on 786-0 renal is 0.681 µM; with OVCAR-3 ovarian, 0.378 µM; in the experiment with SK-OV-3 ovarian, 0.444 µM. Also, the TGI in the experiment with COLO 205 colon, in the experiment on MDA-MB-231 breast, with ACHN renal, with HS 578T breast, in the experiment with CAKI-1 renal and in the experiment on SK-MEL-28 melanoma was above 100 µM throughout. Further, the TGI in the experiment with 786-0 renal, in the experiment with OVCAR-3 ovarian and in the experiment with SK-OV-3 ovarian was above 100 µM in each case.

As to H-QIYKKYRTWYRKAWKVLGKV-NH2, the GI50 in the experiment on COLO 205 colon is 4.3 µM; in the experiment on MDA-MB-231 breast, 4.35 µM; with ACHN renal, 12 µM; in the experiment on HS 578T breast it was 2.57 µM; in the experiment on CAKI-1 renal it was 3.89 µM; with SK-MEL-28 melanoma it was 4.89 µM. The GI50 is 2.84 µM in the experiment with HL-60(TB) leukemia, 3.04 µM with 786-0 renal, 4.3 µM in the experiment with OVCAR-3 ovarian and 11.3 µM in the experiment with SK-OV-3 ovarian. For the same molecule, the TGI in the experiment with COLO 205 colon was 80.7 µM; in the experiment with MDA-MB-231 breast it was 17.9 µM; in the experiment on ACHN renal, 25.5 µM; with HS 578T breast, 8.51 µM; in the experiment on CAKI-1 renal it was 19 µM; in the experiment on SK-MEL-28 melanoma, 22.5 µM. In addition, the TGI in the experiment on HL-60(TB) leukemia stood at 8.76 µM; with 786-0 renal, 16.8 µM; in the experiment on OVCAR-3 ovarian, 22.3 µM; in the experiment on SK-OV-3 ovarian, 30.5 µM.

On to `CNC(c1ccncc1)C(NC)c1ccncc1` (stereo unspecified), for which the TGI in the experiment with COLO 205 colon, in the experiment with MDA-MB-231 breast, in the experiment with ACHN renal, with HS 578T breast, in the experiment with CAKI-1 renal and in the experiment with SK-MEL-28 melanoma was above 100 µM each time. Further, the TGI with HL-60(TB) leukemia, with 786-0 renal, with OVCAR-3 ovarian and with SK-OV-3 ovarian was above 100 µM in each case.

`CC(/C=N/N=C(N)N)=N\N=C(N)N`: the GI50 with COLO 205 colon is 4.26 µM; in the experiment with MDA-MB-231 breast, 7.67 µM; in the experiment with ACHN renal, above 43.5 µM; in the experiment on CAKI-1 renal, 51.7 µM and 15.7 µM; in the experiment with SK-MEL-28 melanoma it was above 80.2 µM; with HL-60(TB) leukemia, 69.1 µM. Further, the GI50 in the experiment on 786-0 renal was 6.12 µM and 1.67 µM; in the experiment on OVCAR-3 ovarian it was 11.1 µM. The TGI in the experiment with COLO 205 colon is 33.1 µM and 21.5 µM; with MDA-MB-231 breast, 965 µM; in the experiment with ACHN renal, 2110 µM; in the experiment with HS 578T breast, 169 µM; in the experiment with CAKI-1 renal, 1010 µM; in the experiment with SK-MEL-28 melanoma it was 363 µM. The TGI in the experiment on HL-60(TB) leukemia is 578 µM; with 786-0 renal it was > 83.6 µM and 19.7 µM; in the experiment on OVCAR-3 ovarian, 130 µM; in the experiment with SK-OV-3 ovarian, 546 µM.

For the molecule `O=C(/C=C/c1ccc([N+](=O)[O-])cc1)c1cccc(Nc2nc(Nc3ccccc3)nc(Nc3ccccc3)n2)c1`, the GI50 with COLO 205 colon is 13 µM; with MDA-MB-231 breast it was 10.7 µM; in the experiment on ACHN renal, 27 µM; with HS 578T breast, 1.35 µM; in the experiment on CAKI-1 renal, 25.2 µM; in the experiment on SK-MEL-28 melanoma, 12.5 µM. The GI50 with HL-60(TB) leukemia is 8.82 µM; in the experiment with 786-0 renal it was 13 µM; in the experiment with OVCAR-3 ovarian it was 11.3 µM; in the experiment with SK-OV-3 ovarian it was 73.8 µM. In addition, the TGI with COLO 205 colon was 61.2 µM; with MDA-MB-231 breast, 41.9 µM; in the experiment with ACHN renal, above 100 µM; in the experiment on HS 578T breast, 5.97 µM; in the experiment with CAKI-1 renal it was above 100 µM; in the experiment on SK-MEL-28 melanoma, 40.1 µM. Moreover, the TGI in the experiment with HL-60(TB) leukemia was 37.7 µM; with 786-0 renal, 43.1 µM; in the experiment on OVCAR-3 ovarian, 63.4 µM; in the experiment with SK-OV-3 ovarian, above 100 µM.

Regarding `CCOC(=O)c1c(C)n(Cc2ccccc2)c2c1cc1oc(=O)c(=O)n3cnc2c13`, the GI50 with COLO 205 colon was 12.8 µM; in the experiment on MDA-MB-231 breast, 13 µM; in the experiment on ACHN renal it was 9.91 µM; with HS 578T breast, 34.3 µM; in the experiment on CAKI-1 renal it was 14.7 µM; in the experiment with SK-MEL-28 melanoma, 40.4 µM. Besides, the GI50 is 14.5 µM in the experiment with HL-60(TB) leukemia, 13.7 µM in the experiment on 786-0 renal, 12.3 µM in the experiment on OVCAR-3 ovarian and above 50 µM in the experiment on SK-OV-3 ovarian. For the same molecule, the TGI in the experiment with COLO 205 colon was 30.6 µM; in the experiment with MDA-MB-231 breast, above 50 µM; in the experiment with ACHN renal it was 39.9 µM; in the experiment with HS 578T breast it was above 50 µM; in the experiment with CAKI-1 renal it was 48.8 µM; in the experiment with SK-MEL-28 melanoma it was above 50 µM. Besides, the TGI in the experiment with HL-60(TB) leukemia is above 50 µM; in the experiment with 786-0 renal it was above 50 µM; in the experiment on OVCAR-3 ovarian, 34.7 µM; in the experiment on SK-OV-3 ovarian, above 50 µM.

`O=S(=O)(O)SCCNCCCCCC1CCCCC1`: the TGI in the experiment on COLO 205 colon was found to be 30.3 µM; in the experiment on MDA-MB-231 breast it was 30 µM; in the experiment with ACHN renal it was 30.3 µM; in the experiment on HS 578T breast it was 36.2 µM; in the experiment on CAKI-1 renal, 35.4 µM; in the experiment on SK-MEL-28 melanoma it was 18.3 µM. Besides, the TGI is above 100 µM with HL-60(TB) leukemia, 28 µM in the experiment with 786-0 renal, 11.2 µM in the experiment on OVCAR-3 ovarian and 31.2 µM in the experiment with SK-OV-3 ovarian.

In the case of `CN1CCN(c2ccc3nc(-c4ccc(OCCCCN5CCN(CCCCN6C(=O)c7cccc8cccc(c78)C6=O)CC5)cc4)[nH]c3c2)CC1`, the GI50 with COLO 205 colon was 96.8 µM; in the experiment on MDA-MB-231 breast, 54.7 µM; in the experiment with ACHN renal, 25.6 µM; in the experiment on HS 578T breast, 3.39 µM; in the experiment on CAKI-1 renal, 73.1 µM; in the experiment on SK-MEL-28 melanoma, 19.4 µM. The GI50 is 25.1 µM in the experiment on HL-60(TB) leukemia, above 100 µM in the experiment on 786-0 renal, 36.6 µM in the experiment with OVCAR-3 ovarian and above 100 µM in the experiment on SK-OV-3 ovarian. In addition, the TGI in the experiment on COLO 205 colon was above 100 µM; in the experiment with MDA-MB-231 breast, above 100 µM; with ACHN renal, 64.1 µM; in the experiment on HS 578T breast it was above 100 µM; with CAKI-1 renal it was above 100 µM; in the experiment with SK-MEL-28 melanoma, 49.9 µM. Moreover, the TGI in the experiment on HL-60(TB) leukemia, with 786-0 renal, with OVCAR-3 ovarian and in the experiment on SK-OV-3 ovarian was above 100 µM throughout.

`O=C1/C(=C\c2ccccc2)C2OCC=C3CN4CCC56c7ccccc7N1C5C2C3CC46` (stereo unspecified): the GI50 is 17.3 µM with COLO 205 colon; 6.92 µM in the experiment with MDA-MB-231 breast; 7.98 µM in the experiment with ACHN renal; 62.5 µM in the experiment on HS 578T breast; 2.18 µM in the experiment with CAKI-1 renal; 2.61 µM in the experiment on SK-MEL-28 melanoma. In addition, the GI50 in the experiment on HL-60(TB) leukemia was 3.47 µM; with 786-0 renal, 9.86 µM; with OVCAR-3 ovarian, 36.5 µM; in the experiment with SK-OV-3 ovarian, above 100 µM. The TGI is above 100 µM in the experiment on COLO 205 colon; above 100 µM in the experiment with MDA-MB-231 breast; above 100 µM in the experiment with ACHN renal; above 100 µM in the experiment with HS 578T breast; 32.1 µM in the experiment on CAKI-1 renal; 5.44 µM in the experiment with SK-MEL-28 melanoma. For the same molecule, the TGI is 20.9 µM with HL-60(TB) leukemia, above 100 µM with 786-0 renal, above 100 µM in the experiment on OVCAR-3 ovarian and above 100 µM in the experiment with SK-OV-3 ovarian.

For `CC1=C(N2CC2)C(=O)c2ccccc2C1=O`, the TGI came out at 2.05 µM with COLO 205 colon; 32.8 µM in the experiment on MDA-MB-231 breast; 1.07 µM in the experiment on ACHN renal; 4.89 µM with HS 578T breast; 1.79 µM with CAKI-1 renal; 4.33 µM with SK-MEL-28 melanoma. In addition, the TGI in the experiment with HL-60(TB) leukemia is 17.1 µM; in the experiment on 786-0 renal, 3.47 µM; in the experiment on OVCAR-3 ovarian, 2.89 µM; in the experiment on SK-OV-3 ovarian, above 100 µM.

These data come from PubChem BioAssay (NCI).
